From US9855270B2, “Methods and compositions for modulating estrogen receptor mutants” (priority 2014, dated 2018)
Like-named read-outs stand apart in the source and are kept apart here.

Experiments:
Assay type in all cases: cell-based
[1] = system: MCF-7 cells (negative control); assay: MCF-7 Stable Cell Line Viability (UbC HA-ER-α series); conditions: Receptor None (MCF-7 negative control); for EC50: Homo sapiens, MCF7, read-out: Potency (EC50; nM)
From the text: (§1) MCF-7 Mutant ER-α Stable Cell Line Generation: MCF-7 cells stably expressing wild-type or ER-α mutants were generated by subcloning ESR1 wild-type and mutant cDNAs containing an amino terminal hemagglutinin tag into pCDH-EF1-MCS-(PGK-Puro) (referred to as EF1 HA-ER-α) and pCDH-UbC-MCS-EF1-Hygro (referred to as UbC HA-ER-α) (System Biosciences). The resulting plasmids, in addition to an empty vector negative control, were subsequently cotransfected into HEK293T cells with the pPACKH1 packaging plasmid mix (System Biosciences) according to the manufacturer's protocol. Four days post transfection lentiviral particles were purified from the cell medium, tiered and stored at −80° C. MCF-7 cells were transduced with the purified viral particles and stable cell lines were selected by growth in RPMI containing 10% FBS plus 1 μG/mL puromycin or 200 μG/mL hygromycin for pCDH-EF1-MCS-(PGK-Puro) and pCDH-UbC-MCS-EF1-Hygro, respectively.
(§2) MCF-7 Stable Cell Line Viability: MCF-7 cells were enumerated with a hemacytometer adjusted to a concentration of 40,000 cells per mL in Phenol Free RPMI containing 10% CSS with NEAA and Sodium Pyruvate. 16 microliters of the cell suspension was added to each well of a 384 well tissue culture treated white clear bottom polystyrene plate (Corning) using a Matrix 16 channel electronic pipette. The cells were incubated overnight to allow the cells to adhere. The following day, 16 microliters of Phenol Free RPMI containing 10% CSS with NEAA and Sodium Pyruvate was added to the wells of one plate, followed by 16 μL of CellTiter-Glo (Promega, Madison Wis.) luminescent cell viability reagent using a Matrix 16 channel electronic pipette. […] The “average” of the relative luminescence units (RLUs) of the wells are considered to be the baseline value at time=zero. In addition, a 10 point, 1:5 serial dilution in DMSO (Sigma-Aldrich) was performed using Matrix 12 channel electronic pipette, including DMSO only as […]. 4 μL of each dilution was then added to 196 μL of RPMI containing 10% CSS with NEAA and Sodium Pyruvate. 16 μL of medium containing compound was added to the cells at a final concentration ranging from 10 μM to 5 pM. Compound dilution in media and subsequent addition to cells were carried out using Matrix 12 channel electronic pipettes. After 5 day compound exposure, 16 μL of CellTiter-Glo (Promega, Madison Wis.) luminescent cell viability reagent was added to the cells using a Matrix 16 channel electronic pipette. CellTiter-Glo added to 32 μL of medium without cells was used to obtain a background value. […] The relative luminescence units (RLUs) of each well were measured, and relative proliferation (fold) of each sample was determined as follows: (RLU sample−RLU background)/(RLU at T=0)=relative proliferation
(§3) The UbC promoter is reported by the manufacturer (System Biosciences) to express low to moderate RNA levels while the EF1 promoter expresses high levels (System Biosciences).

[2] = system: MCF-7 cells stably expressing UbC HA-ER-α wild-type; assay: as above; conditions: UbC HA-ER-α Wild-type; for EC50: Homo sapiens, MCF7, read-out: Potency (EC50; nM); for Percent inhibition compared to vehicle: 5-Day Incubation; for Efficacy (Emax): Day 5 relative to Day 0
From the text: as §1, §2, §3

[3] = system: MCF-7 cells stably expressing EF1 HA-ER-α E380Q; assay: cells; conditions: EF1 HA-ER-α E380Q; for Percent inhibition compared to vehicle: 5-Day Incubation; for Efficacy (Emax): Day 5 relative to Day 0; for EC50: Homo sapiens, MCF7, read-out: Potency (EC50; nM)
From the text: as §1, §2, §3

[4] = system: MCF-7 cells stably expressing EF1 HA-ER-α Y537N; assay: cells; conditions: EF1 HA-ER-α Y537N; for Percent inhibition compared to vehicle: 5-Day Incubation; for Efficacy (Emax): Day 5 relative to Day 0; for EC50: Homo sapiens, MCF7, read-out: Potency (EC50; nM)
From the text: as §1, §2, §3

[5] = system: MCF-7 cells stably expressing UbC HA-ER-α E380Q; assay: cells; conditions: UbC HA-ER-α E380Q; for EC50: Homo sapiens, MCF7, read-out: Potency (EC50; nM); for Percent inhibition compared to vehicle: 5-Day Incubation; for Efficacy (Emax): Day 5 relative to Day 0
From the text: as §1, §2, §3

[6] = system: MCF-7 cells stably expressing UbC HA-ER-α L536R; assay: cells; conditions: UbC HA-ER-α L536R; for EC50: Homo sapiens, MCF7, read-out: Potency (EC50; nM); for Percent inhibition compared to vehicle: 5-Day Incubation; for Efficacy (Emax): Day 5 relative to Day 0
From the text: as §1, §2, §3

[7] = system: MCF-7 cells stably expressing EF1 HA-ER-α wild-type; assay: MCF-7 Stable Cell Line Viability (EF1 HA-ER-α series); conditions: EF1 HA-ER-α Wild-type; for Percent inhibition compared to vehicle: 5-Day Incubation; for Efficacy (Emax): Day 5 relative to Day 0; for EC50: Homo sapiens, MCF7, read-out: Potency (EC50; nM)
From the text: as §1, §2, §3

[8] = system: MCF-7 cells transduced with an empty EF1 lentiviral vector (negative control); assay: as above; conditions: for EC50: Homo sapiens, MCF7, Receptor None (empty EF1 lentiviral vector), read-out: Potency (EC50; nM); for Percent inhibition compared to vehicle / Efficacy (Emax): Receptor None (empty EF1 lentiviral vector); for Percent inhibition compared to vehicle: 5-Day Incubation; for Efficacy (Emax): Day 5 relative to Day 0
From the text: as §1, §2, §3

[9] = Antagonist Mode, −E2 (Table 27)

SMILES: CC1=C(c2cccc(O)c2)[C@H](c2ccc(OCCN3CC(CF)C3)cc2)Oc2ccc(O)cc21 [Compound 4-23, (S)-2-(4-(2-(3-(fluoromethyl)azetidin-1-yl)ethoxy)phenyl)-3-(3-hydroxyphenyl)-4-methyl-2H-chromen-6-ol]
- EC50 ([1]; Agonist Mode, −E2): 0.227 ± 0.21 nM
- EC50 ([1]; Antagonist Mode, +E2): 0.378 ± 0.216 nM
- Percent inhibition compared to vehicle ([1]; Agonist Mode, −E2, 5-Day Incubation): 31%
- Efficacy (Emax) ([1]; Agonist Mode, −E2, Day 5 relative to Day 0): 1.20 ± 0.27
- Percent inhibition compared to vehicle ([1]; Antagonist Mode, +E2, 5-Day Incubation): 66%
- Efficacy (Emax) ([1]; Antagonist Mode, +E2, Day 5 relative to Day 0): 1.08 ± 0.04
- EC50 ([2]; Agonist Mode, −E2): 4.04 ± 8.01 nM
- EC50 ([2]; Antagonist Mode, +E2): 0.599 ± 0.3 nM
- Percent inhibition compared to vehicle ([2]; Agonist Mode, −E2): 39%
- Efficacy (Emax) ([2]; Agonist Mode, −E2): 1.13 ± 0.13
- Percent inhibition compared to vehicle ([2]; Antagonist Mode, +E2): 76%
- Efficacy (Emax) ([2]; Antagonist Mode, +E2): 1.20 ± 0.10
- Percent inhibition compared to vehicle ([3]; Agonist Mode, −E2): 63%
- Efficacy (Emax) ([3]; Agonist Mode, −E2): 2.43 ± 0.02
- Percent inhibition compared to vehicle ([3]; Antagonist Mode, +E2): 62%
- Efficacy (Emax) ([3]; Antagonist Mode, +E2): 2.39 ± 0.24
- EC50 ([3]; Antagonist Mode, +E2): 14 ± 15.4 nM
- EC50 [3, 9]: 3.76 ± 3.11 nM
- Percent inhibition compared to vehicle ([4]; Agonist Mode, −E2): 88%
- Efficacy (Emax) ([4]; Agonist Mode, −E2): 0.74 ± 0.01
- Percent inhibition compared to vehicle ([4]; Antagonist Mode, +E2): 87%
- Efficacy (Emax) ([4]; Antagonist Mode, +E2): 0.70 ± 0.01
- EC50 ([4]; Antagonist Mode, +E2): 45.5 ± 51.7 nM
- EC50 [4, 9]: 16 ± 17.6 nM
- EC50 ([5]; Agonist Mode, −E2): 0.208 ± 0.141 nM
- EC50 ([5]; Antagonist Mode, +E2): 1.02 ± 0.163 nM
- Percent inhibition compared to vehicle ([5]; Agonist Mode, −E2): 58%
- Efficacy (Emax) ([5]; Agonist Mode, −E2): 1.78 ± 0.28
- Percent inhibition compared to vehicle ([5]; Antagonist Mode, +E2): 77%
- Efficacy (Emax) ([5]; Antagonist Mode, +E2): 1.61 ± 0.34
- EC50 ([6]; Agonist Mode, −E2): 0.334 ± 0.27 nM
- EC50 ([6]; Antagonist Mode, +E2): 2.58 ± 0.181 nM
- Percent inhibition compared to vehicle ([6]; Agonist Mode, −E2): 53%
- Efficacy (Emax) ([6]; Agonist Mode, −E2): 1.80 ± 0.26
- Percent inhibition compared to vehicle ([6]; Antagonist Mode, +E2): 71%
- Efficacy (Emax) ([6]; Antagonist Mode, +E2): 1.73 ± 0.31
- Percent inhibition compared to vehicle ([7]; Agonist Mode, −E2): 62%
- Efficacy (Emax) ([7]; Agonist Mode, −E2): 2.17 ± 0.03
- Percent inhibition compared to vehicle ([7]; Antagonist Mode, +E2): 68%
- Efficacy (Emax) ([7]; Antagonist Mode, +E2): 2.17 ± 0.29
- EC50 ([7]; Antagonist Mode, +E2): 8.65 ± 10.5 nM
- EC50 [7, 9]: 2.13 ± 2.06 nM
- EC50 ([8]; Antagonist Mode, +E2): 2.81 ± 3.28 nM
- EC50 [8, 9]: 0.286 ± 0.294 nM
- Percent inhibition compared to vehicle ([8]; Agonist Mode, −E2): 52%
- Efficacy (Emax) ([8]; Agonist Mode, −E2): 1.06 ± 0.24
- Percent inhibition compared to vehicle ([8]; Antagonist Mode, +E2): 76%
- Efficacy (Emax) ([8]; Antagonist Mode, +E2): 0.96 ± 0.12
